Data on two compounds can be found in US6677431B2, “Design, preparation, and properties of antibacterial β-peptides” (The Trustees of the University of Pennsylvania, priority 1999, dated 2004).

The subject of one experiment is osmY-lux fusion. The experiment can be described thus: Stress-induced response assay, induction of osmY-lux fusion. In kind it is cell-based. Conditions: for induction of osmY-lux: Group II peptides; for osmY gene fusion response: Table 4, stress sensed osmotic shock. How it is done:
(§1) Stress-induced response and growth inhibition assays were carried out on samples of four of the β-peptide and compared to known polycationic peptides.
(§2) Polymyxin B was tested both rich, LB, medium and defined, M9, medium. The other natural peptides were tested in LB medium.
(§3) The β-peptides were tested in M9 medium. * In LB medium (data from Oh et al. Biochem. Biophys. Acta. 2000,1463: 43-54)
(§4) However, similar to the magainins, no induction of the micF-lux fusion was observed. Also, the minimum inhibitory concentrations (MIC's) were determined to be higher than those reported in the published manuscript.
(§5) Samples of these β-peptides 1 and 2 were evaluated in the stress-induced response assays.
(§6) The biolumenescence data result from test carried out according to U.S. Pat. No. 5,683,868, Highly Sensitive Method For Detecting Environmental Insults, issued Nov. 4, 1997 to LaRossa et al., the entire contents of the disclosure of are hereby incorporated by reference, The tests described in this patent permit antibacterial properties of peptides or any other materials to be assessed. […] Along these lines, FIG. 5 illustrates a relationship between relative light units and minutes of exposure of bacteria to the various materials in the legend. P×B represents polymyxin, a known antibacterial material. In the graph, a decrease in RULs corresponds to a decrease in bacteria. […]

A further experiment relates to micF-lux fusion. Nature of the experiment: Stress-induced response assay, induction of micF-lux fusion. In kind it is cell-based. Conditions: for induction of micF-lux: Group II peptides; for micF gene fusion response: Table 4, regulatory gene Rob. How it is done:
as §1, §2, §3, §4, §5, §6

Experiment [1] can be described thus: Peptide-induced leakage of liposomal contents (calcein release). Here is the method:
The leakage of liposome contents to the external media was monitored by the release of calcein encapsulated in vesicles. The vesicle was prepared by reverse-phase evaporation in 10 mM sodium phosphate buffer, pH 7, followed by single extrusion through one 0.2 μm pore size polycarbonate filter. The non trapped calcein was removed by eluting through a size exclusion Sephadex G-25 column, with 90 mM sodium chloride, 10 mM sodium phosphate, pH 7. The leaking kinetics was monitored by follow the increase of calcein fluorescence intensity at 520 nm (excitation at 490 nm) due to release of self-quenching. The experiment was carried out on a Hitachi F-2500 Fluoresence spectrophotometer, with a slit width of […]. The initial rate was calculated from the linear part of the %leakage vs. time curve.
The mechanism of how the antibacterial peptides work is still on debate. However, it is generally believed they kill the cell by disturbing cell membranes. The experiment of peptide-induced leakage of liposomal contents is a direct way to monitor this process. Large unilammilar vesicles (LUV) of SOPS/SOPC (1:9) were used in the binding study. The leakage of encapsulated calcein was detected by its fluorescence at 515 nm. The fraction of bound lipid at different peptide concentration was calculated and overlaid in FIG. 4 as well. The lysis abilities of the two peptides are similar at low peptide concentration, and become quite different with increasing amount of peptide. […] With increase of peptide concentration, the leakage percentage increases quickly. For peptide 2, the leakage percentage jumps to 100% within the range between 0.05 μM and 0.14 μM where the corresponding fractions of lipid bound are about 10% 40%, respectively. […] The percentage of leakage increases to about 80% when the peptide concentration reaches 0.5 μM. The lysis ability stays at a plateau until the peptide concentration is pushed up to 2 μM, when about 60% of lipid molecules are bound to peptide molecules. […] The difference between the two peptides is even more obvious when looking at the leakage rate right after the addition of peptide to the vesicle solution, as shown in FIG. 3. The initial leakage rate for peptide 2 increases sharply when the peptide concentration increases from 0.14 μM to 0.19 μM. […] For peptide 1, the leakage initial rate increases in a continuous fashion, and 100% leakage is not complete until 300 s with 5.18 μM peptide.

On to `CC(C)[C@@H](CC(N)=O)NC(=O)C[C@H](CCCCN)NC(=O)C[C@H](C)NC(=O)C[C@@H](NC(=O)C[C@H](CCCCN)NC(=O)C[C@H](C)NC(=O)C[C@@H](NC(=O)C[C@H](CCCCN)NC(=O)C[C@H](C)NC(=O)C[C@@H](NC(=O)C[C@H](CCCCN)NC(=O)C[C@H](C)N)C(C)C)C(C)C)C(C)C` [Peptide 1], for which, in the experiment on osmY-lux fusion, the “induction of osmY-lux” value is “induction” and the “osmY gene fusion response” value is “yes”. Besides, in the experiment with micF-lux fusion, the “induction of micF-lux” value was “induction” and the “micF gene fusion response” value is given as “yes”. Also, in experiment [1] (5.18 μM peptide), the “time to 100% leakage” value was 300 s. Further, in experiment [1] (at 285 seconds, 5 μM peptide), the “lysis of the vesicle” value is “Complete lysis”. The percentage of leakage entry in experiment [1] (at 285 seconds, peptide 0.5 μM) is on record as “about 80%”.

Turning to `CC(C)[C@@H](CC(N)=O)NC(=O)C[C@H](CCCCN)NC(=O)C[C@H](C)NC(=O)C[C@@H](NC(=O)C[C@H](CCCCN)NC(=O)C[C@H](C)NC(=O)C[C@@H](NC(=O)C[C@H](CCCCN)NC(=O)C[C@H](C)NC(=O)C[C@@H](NC(=O)C[C@H](CCCCN)NC(=O)C[C@H](C)NC(=O)C[C@@H](NC(=O)C[C@H](CCCCN)NC(=O)C[C@H](C)N)C(C)C)C(C)C)C(C)C)C(C)C` [Peptide 2], in the experiment with osmY-lux fusion, the “induction of osmY-lux” value is reported as “induction” and the “osmY gene fusion response” value was “yes”. For the same compound, in the experiment with micF-lux fusion, the “induction of micF-lux” value is reported as “induction” and the “micF gene fusion response” value was “yes”. Moreover, the percentage of leakage in experiment [1] (at 285 seconds, peptide between 0.05 μM and 0.14 μM) is reported as 100%. The “time to complete lysis of the vesicle” value in experiment [1] (peptide concentration higher than 0.5 μM) is at most 20 s.
